In article PMC3581310 (Bioorganic & medicinal chemistry, 2012):
One block for each molecule: values may come before it.

Key:
ER [1] = conditions: triphenyl acrylonitriles; cited from earlier work
[2] = tested on: human endometrial adenocarcinoma cells (Ishikawa); assay: Estrogen bioassay: induction of AlkP in Ishikawa cells; type: cell-based
ER [3] = conditions: cited from earlier work

SMILES: COc1ccc(C(=C(C#N)c2ccc(O)cc2)c2ccc(O)cc2)cc1
efficacy (ER [1]): ‘partial’ agonist responses

SMILES: COc1ccc([C@H]2C[C@]3(C)[C@@H](O)CC[C@H]3[C@@H]3CCc4cc(O)ccc4[C@H]32)cc1 [Compound 5, 11β-(4-Methoxyphenyl)estra-1,3,5(10)-trien-3,17β-diol]
Max stim ([2]; maximal stimulation of AlkP in Ishikawa cells, printed in the RSA column): Max stim = 35–45%

EC50 ([2]; Homo sapiens, Ishikawa, read-out: EC50 of E2): ~0.2 nM
SMILES: C[C@]12CC[C@@H]3c4ccc(O)cc4CC[C@H]3[C@@H]1CC[C@@H]2O [Compound E2, estradiol]

SMILES: CC/C(=C(\c1ccccc1)c1ccc(OCCN(C)C)cc1)c1ccccc1 [tamoxifen]
affinity (RBA) (ER [3]): ~ 1%

SMILES: N#CC(=C(c1ccc(O)cc1)c1ccc(O)cc1)c1ccc(O)cc1 [α,α′,β-tris(4-hydroxyphenyl) compound]
efficacy (ER [1]): full agonist
